pIC50: −log10 of the molar value.
System: Aβ1-42 production
Test: Cellular assay for inhibition of Aβ1-42 production (H4 APP751 SWE clone 8.20)
Type: cell-based
Conditions: 19 h, H4 APP751 SWE clone 8.20 cells, 19 h incubation; class symbols; read-out: Activity Rating (Aβ42 cellular IC50)
Outline: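 19 h cell treatment, 37 °C/5% CO2. Detection of secreted Aβ42 in the cell plate: 565 (Aβ42-specific, Wallac) and 26D6 (N-terminal, APC), overnight 4 °C. IC50 from fitted curves.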

pIC50	Structure (SMILES)
7.00 to 8.00	COc1cc(Nc2nc3c(c(N4CCC(F)C4)n2)CCOC3c2ccc(F)cc2)ccc1-n1cnc(Cl)c1 (stereo in doubt) [Example 90A, N-(4-(4-chloro-1H-imidazol-1-yl)-3-methoxyphenyl)-8-(4-fluorophenyl)-4-((R)-3-fluoropyrrolidin-1-yl)-6,8-dihydro-5H-pyrano[3,4-d]pyrimidin-2-amine]
8.00 to 8.82	CNc1nc(Nc2ccc(-n3cnc(Cl)c3)c(OC)c2)nc2c1CCC2c1ccc(F)cc1 (stereo not shown) [Example 11, N^2-(4-(4-Chloro-1H-imidazol-1-yl)-3-methoxyphenyl)-7-(4-fluorophenyl)-N^4-methyl-6,7-dihydro-5H-cyclopenta[d]pyrimidine-2,4-diamine]
8.00 to 8.82	CNc1nc(Nc2ccc(-n3ncnc3C)c(F)c2)nc2c1CCC2c1ccc(F)cc1 (stereo not shown) [Example 12, N^2-(3-Fluoro-4-(5-methyl-1H-1,2,4-triazol-1-yl)phenyl)-7-(4-fluorophenyl)-N^4-methyl-6,7-dihydro-5H-cyclopenta[d]pyrimidine-2,4-diamine]
7.00 to 8.00	COc1cc(Nc2nc3c(c(N4CC(F)(F)C4)n2)CCC3c2ccc(F)cc2)ccc1-n1cnc(Cl)c1 (stereo not shown) [Example 15, N-(4-(4-Chloro-1H-imidazol-1-yl)-3-methoxyphenyl)-4-(3,3-difluoroazetidin-1-yl)-7-(4-fluorophenyl)-6,7-dihydro-5H-cyclopenta[d]pyrimidin-2-amine]
7.00 to 8.00	COc1cc(Nc2nc3c(c(N4C[C@@H]5C[C@H]4CO5)n2)CCC3c2ccc(F)cc2)ccc1-n1cnc(Cl)c1 (stereo partly drawn) [Example 18, 4-((1S,4S)-2-oxa-5-azabicyclo[2.2.1]heptan-5-yl)-N-(4-(4-chloro-1H-imidazol-1-yl)-3-methoxyphenyl)-7-(4-fluorophenyl)-6,7-dihydro-5H-cyclopenta[d]pyrimidin-2-amine]
7.00 to 8.00	COc1cc(Nc2nc3c(c(N4C[C@@H](C)O[C@@H](C)C4)n2)CCC3c2ccc(F)cc2)ccc1-n1cnc(Cl)c1 (stereo partly shown) [Example 21]
7.00 to 8.00	COc1cc(Nc2nc3c(c(N4CCC(C)(N)CC4)n2)CCC3c2ccc(F)cc2)ccc1-n1cnc(Cl)c1 (stereo not shown) [Example 25, 4-(4-amino-4-methylpiperidin-1-yl)-N-(4-(4-chloro-1H-imidazol-1-yl)-3-methoxyphenyl)-7-(4-fluorophenyl)-6,7-dihydro-5H-cyclopenta[d]pyrimidin-2-amine]
7.00 to 8.00	COc1cc(Nc2nc3c(c(N4CCC(N(C)C)C4)n2)CCC3c2ccc(F)cc2)ccc1-n1cnc(Cl)c1 (stereo not shown) [Example 29, N-(4-(4-chloro-1H-imidazol-1-yl)-3-methoxyphenyl)-4-(3-(dimethylamino)pyrrolidin-1-yl)-7-(4-fluorophenyl)-6,7-dihydro-5H-cyclopenta[d]pyrimidin-2-amine]
7.00 to 8.00	COc1cc(Nc2nc3c(c(N4CCN(C)CC4)n2)CCC3c2ccc(F)cc2)ccc1-n1cnc(Cl)c1 (stereo not shown) [Example 30, N-(4-(4-chloro-1H-imidazol-1-yl)-3-methoxyphenyl)-7-(4-fluorophenyl)-4-(4-methylpiperazin-1-yl)-6,7-dihydro-5H-cyclopenta[d]pyrimidin-2-amine]

More lines, now with the values behind:

Structure (SMILES)	pIC50
CNc1nc(Nc2ccc(-n3cnc(C)n3)c(OC)c2)nc2c1CCC2c1ccccc1 (stereo not shown) [Example 1, N2-(3-methoxy-4-(3-methyl-1H-1,2,4-triazol-1-yl)phenyl)-N4-methyl-7-phenyl-6,7-dihydro-5H-cyclopenta[d]pyrimidine-2,4-diamine]	8.00 to 8.82
CNc1nc(Nc2ccc(-n3cnc(C)n3)c(F)c2)nc2c1CCC2c1ccccc1 (stereo not shown) [Example 2, N2-(3-fluoro-4-(3-methyl-1H-1,2,4-triazol-1-yl)phenyl)-N4-methyl-7-phenyl-6,7-dihydro-5H-cyclopenta[d]pyrimidine-2,4-diamine]	8.00 to 8.82
CNc1nc(Nc2ccc(-n3ncnc3C)c(F)c2)nc2c1CCC2c1ccccc1 (stereo not shown) [Example 3, N2-(3-fluoro-4-(5-methyl-1H-1,2,4-triazol-1-yl)phenyl)-N4-methyl-7-phenyl-6,7-dihydro-5H-cyclopenta[d]pyrimidine-2,4-diamine]	7.00 to 8.00
COc1cc(Nc2nc3c(c(N(C)C)n2)CCC3c2ccccc2)ccc1-n1cnc(Cl)c1 (stereo not shown) [Example 4, N^2-(4-(4-Chloro-1H-imidazol-1-yl)-3-methoxyphenyl)-N^4,N^4-dimethyl-7-phenyl-6,7-dihydro-5H-cyclopenta[d]pyrimidine-2,4-diamine]	8.00 to 8.82
CCN(C)c1nc(Nc2ccc(-n3cnc(Cl)c3)c(OC)c2)nc2c1CCC2c1ccccc1 (stereo not shown) [Example 5, N^2-(4-(4-Chloro-1H-imidazol-1-yl)-3-methoxyphenyl)-N^4-ethyl-N^4-methyl-7-phenyl-6,7-dihydro-5H-cyclopenta[d]pyrimidine-2,4-diamine]	8.00 to 8.82
COc1cc(Nc2nc3c(c(N4CCC4)n2)CCC3c2ccccc2)ccc1-n1cnc(Cl)c1 (stereo not shown) [Example 6, 4-(Azetidin-1-yl)-N-(4-(4-chloro-1H-imidazol-1-yl)-3-methoxyphenyl)-7-phenyl-6,7-dihydro-5H-cyclopenta[d]pyrimidin-2-amine]	7.00 to 8.00
COc1cc(Nc2nc(NC3CC3)c3c(n2)C(c2ccccc2)CC3)ccc1-n1cnc(Cl)c1 (stereo not shown) [Example 8, N2-(4-(4-chloro-1H-imidazol-1-yl)-3-methoxyphenyl)-N4-cyclopropyl-7-phenyl-6,7-dihydro-5H-cyclopenta[d]pyrimidine-2,4-diamine]	8.00 to 8.82
COc1cc(Nc2nc(NC(C)C)c3c(n2)C(c2ccccc2)CC3)ccc1-n1cnc(Cl)c1 (stereo not shown) [Example 10, N2-(4-(4-chloro-1H-imidazol-1-yl)-3-methoxyphenyl)-N4-isopropyl-7-phenyl-6,7-dihydro-5H-cyclopenta[d]pyrimidine-2,4-diamine]	8.00 to 8.82

Same assay, conditions: 19 h, H4 APP751 SWE clone 8.20 cells, 19 h incubation; read-out: Activity Rating (Aβ42 cellular IC50), numeric value

pIC50	Structure (SMILES)
6.57	COc1cc(Nc2nc3c(c(N4CCC(F)C4)n2)CCOC3c2ccc(F)cc2)ccc1-n1cnc(Cl)c1 (stereo in doubt) [Example 90B, N-(4-(4-chloro-1H-imidazol-1-yl)-3-methoxyphenyl)-8-(4-fluorophenyl)-4-((R)-3-fluoropyrrolidin-1-yl)-6,8-dihydro-5H-pyrano[3,4-d]pyrimidin-2-amine]
8.09	COc1cc(Nc2nc(NC3CCC3)c3c(n2)C(c2ccccc2)CC3)ccc1-n1cnc(Cl)c1 (stereo not shown) [Example 9, N2-(4-(4-chloro-1H-imidazol-1-yl)-3-methoxyphenyl)-N4-cyclobutyl-7-phenyl-6,7-dihydro-5H-cyclopenta[d]pyrimidine-2,4-diamine]

Same assay, conditions: H4 APP751 SWE clone 8.20 cells, 19 h incubation; class symbols; read-out: Activity Rating (Aβ42 cellular IC50)

pIC50	Structure (SMILES)
8.00 to 8.82	COc1cc(Nc2nc3c(c(N4CCC(F)C4)n2)CCOC3c2ccc(F)cc2)ccc1-n1cnc(Cl)c1 (stereo in doubt) [Example 91A, N-(4-(4-chloro-1H-imidazol-1-yl)-3-methoxyphenyl)-8-(4-fluorophenyl)-4-((S)-3-fluoropyrrolidin-1-yl)-6,8-dihydro-5H-pyrano[3,4-d]pyrimidin-2-amine]
6.00 to 7.00	COc1cc(Nc2nc3c(c(N4CCC(F)C4)n2)CCOC3c2ccc(F)cc2)ccc1-n1cnc(Cl)c1 (stereo in doubt) [Example 91B, N-(4-(4-chloro-1H-imidazol-1-yl)-3-methoxyphenyl)-8-(4-fluorophenyl)-4-((S)-3-fluoropyrrolidin-1-yl)-6,8-dihydro-5H-pyrano[3,4-d]pyrimidin-2-amine]
8.00 to 8.82	CNc1nc(Nc2ccc(-n3ncnc3C)c(F)c2)nc2c1CCC2c1ccc(F)cc1 (stereo not shown) [Example 26, N^2-(3-fluoro-4-(5-methyl-1H-1,2,4-triazol-1-yl)phenyl)-7-(4-fluorophenyl)-N^4-methyl-6,7-dihydro-5H-cyclopenta[d]pyrimidine-2,4-diamine]

Reference: US8637525B2, “Compounds for the reduction of beta-amyloid production” (Bristol-Myers Squibb Company, priority 2009, dated 2014)
